Test results taken from paper PMC11187126, “Structure and dynamics of the pyroglutamylated RF-amide peptide QRFP receptor GPR103” (Nature Communications, 2024).
Where two headings read alike, the source gives them in different places. No end group written: not given here.

Molecular target: T1, GPR103 E203^ECL2A (Homo sapiens, UniProt Q96P65, E203A)
T1 construct: we used human full-length QRFPR-encoding plasmids; expressed in transfected cells; host or cells: HEK293 cells, pCAGGS vector
T1 sequence (Q96P65 1-431 E203A): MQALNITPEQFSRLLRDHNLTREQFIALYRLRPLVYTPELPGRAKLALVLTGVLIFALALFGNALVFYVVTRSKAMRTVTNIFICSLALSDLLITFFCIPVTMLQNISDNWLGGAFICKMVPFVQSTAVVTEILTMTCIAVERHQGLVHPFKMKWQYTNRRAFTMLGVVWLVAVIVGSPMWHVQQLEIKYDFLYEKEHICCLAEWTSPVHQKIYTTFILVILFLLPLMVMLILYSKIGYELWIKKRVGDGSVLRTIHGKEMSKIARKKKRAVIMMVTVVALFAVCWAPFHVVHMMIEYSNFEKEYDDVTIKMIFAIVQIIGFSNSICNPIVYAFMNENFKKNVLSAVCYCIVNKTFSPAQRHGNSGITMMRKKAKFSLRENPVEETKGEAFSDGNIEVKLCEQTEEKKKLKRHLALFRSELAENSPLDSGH
Assay: TGFα shedding assay; Exp. level >WT (1:1)
Assay type: cell-based
Protocol: For the TGFα shedding assay and the flow cytometry analysis, we used human full-length QRFPR-encoding plasmids. Specifically, GPR103 was N-terminally modified with an HA signal sequence followed by a FLAG epitope and then a flexible linker ([…]; the FLAG epitope is underlined) and inserted into the pCAGGS vector. Plasmid encoding GPR103 mutants were generated using Quickchange Site-Directed Mutagensis kit (Agilent).
The TGFα shedding assay was performed as described previously with minor modifications. Plasmid transfection was performed in a 6-well plate with a mixture of 500 ng (per well in a 6-well plate) AP-TGFα-encoding plasmid and 200 ng GPR103-encoding plasmid. After 1-day culture, the transfected cells were harvested by trypsinization, pelleted by centrifugation at 190 × g for 5 min, and washed once with 5 mM HEPES (pH 7.4)-containing Hank’s Balanced Salt Solution (HBSS). After centrifugation, the cells were resuspended in 8 mL of the HEPES-containing HBSS. The cell suspension was seeded in a 96-well culture plate (cell plate) at a volume of 90 μL (per well hereafter) and incubated in a 37 °C incubator with 5% CO2 for 30 min. […] After spinning the cell plates at 190 × g for 2 min, 80 μL of conditioned media was transferred to an empty 96-well plate (conditioned media (CM) plate). Then, 80 μL of AP reaction solution (10 mM p-nitrophenylphosphate (p-NPP), 120 mM Tris-HCl (pH 9.5), 40 mM NaCl, and 10 mM MgCl2) was dispensed into the cell plates and the CM plates. Absorbance at 405 nm of the plates was measured using a microplate reader (SpectraMax 340 PC384, Molecular Devices) before and after 1-h incubation at room temperature. Ligand-induced AP-TGFα release was calculated by subtracting spontaneous AP-TGFα release signal from ligand-induced AP-TGFα release signal. The AP-TGFα release signals were fitted to a four-parameter sigmoidal concentration–response curve, using the Prism 10 software (GraphPad Prism). For each replicate experiment, the pEC50 parameter (negative logarithmic values of EC50 values) of the individual GPR103 mutants were normalized to that of the wild-type GPR103 performed in parallel, and resulting ∆pEC50 values were used to denote ligand response activity of the mutants. […]
Exp. le vel: WT (1:5 0)Exp. le vel: WT (1:5 0)Exp. le vel: WT (1:5 0)Exp. le vel: WT (1:2 0)Exp. le vel: WT (1:2 0)Exp. le vel: WT (1:1 0) […]
L1 4N - t e r mA F2 5N - t e r mA I 2 6N - t e r mA Y 2 9N - t e r mA C 9 82 .5 7A T10 22 .6 1A Exp . l eve l: WT (1 :5)Exp . l evel : >WT (1 :1)Exp. le vel: WT (1:2 0)Exp. le vel: WT (1:2 0)Exp. le vel: WT (1:5 0)Exp . l eve l: WT (1 :1) […]
Exp. le vel: WT (1:1 0)Exp. le vel: WT (1:2 0) C 1 1 83 .2 5AExp. le vel: WT (1:5 0)Exp. le vel: WT (1:5 0)Exp. le vel: WT (1:2 0)Exp . l eve l: WT (1 :5) […]
Exp. le vel: WT (1:5 0)Exp. le vel: WT (1:1 0)Exp. le vel: WT (1:5 0) E203ECL2AExp . l evel : >WT (1 :1)Exp. le vel: WT (1:5 0)Exp. le vel: WT (1:5 0) […]
Exp . l eve l: WT (1 :1) F28Exp. le vel: WT (1:5 0) C 2 8 56 .4 7AExp. le vel: WT (1:2 0) WExp. le vel: WT (1:2 0) F28Exp. le vel: WT (1:5 0)Exp . l evel : >WT (1 :1) […]
Exp. le vel: WT (1:5 0)Exp. le vel: WT (1:5 0) C 3 2 77 .4 8AExp . l eve l: WT (1 :5)Exp . l evel : >WT (1 :1)Exp . l evel : >WT (1 :1) […]
Suppl eme nt ary Figure 1 | Mutational analysis of GPR103. […]
mutants. Data are presented as mean values ± SEM, normally n=3-5; dots), each performed in triplicate. b-d Cell-surface expression (b) and QRFP26-in-duced activation of GPR103 (c, d) were analyzed by the flow cytometry and the TGFα shedding assay, respectively. From the concentration–response curves (a), Emax (c) and ΔpEC50 (d) values relative to the wild type were calculated. Colors in the mutant bars indicate an expression level matching to that of titrated wild type. Statistical analyses were performed using the ordinary one-way ANOVA followed by Dunnett tests with the expression-matched […]

## TSGPLGNLAEELNGYSRKKGGFSFRF-NH2 [QRFP26]
Exp. #1
  Emax: 96.63 % WT
Exp. #2
  Emax: 100.59 % WT
Exp. #3
  Emax: 99.12 % WT
mean, read-out: Emax
  Emax: 98.8%
N = 3
  EC50: 288 nM
N = 3, read-out: Emax
  Emax: 101 ± 0.94%
